Results on 28 compounds are retold here after PubChem BioAssay AID330 (DTP/NCI, 2004).

The assay relates to P388 leukemia ip, CD2F1 mice, survival T/C. Kind of assay: NCI In Vivo Anticancer Drug Screen. Data for tumor model P388 Leukemia (intraperitoneal) in CD2F1 (CDF1) mice. Conditions: endpoint: median survival time, higher = longer survival. The method, boiled down: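 Mice carrying the transplanted tumor received test compound or vehicle. Survival was recorded in each group, and the value is the treated-group measurement divided by that of the vehicle-treated control group.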

The mark [1] stands for this setting: dose: 50.0 mg/kg/injection, schedule: Q01DX009 (ip), vehicle: saline.
Setting [2] is: dose: 100.0 mg/kg/injection, schedule: Q01DX009 (ip), vehicle: saline.
Where [3] appears, read: dose: 200.0 mg/kg/injection, schedule: Q01DX009 (ip), vehicle: saline.
[4] abbreviates: dose: 60.0 mg/kg/injection, schedule: Q01DX005 (ip), vehicle: saline with Tween-80.
Where [5] appears, read: dose: 120.0 mg/kg/injection, schedule: Q01DX005 (ip), vehicle: saline with Tween-80.
[6] abbreviates: dose: 240.0 mg/kg/injection, schedule: Q01DX005 (ip), vehicle: saline with Tween-80.
[7] abbreviates: dose: 50.0 mg/kg/injection, schedule: Q01DX005 (ip), vehicle: Klucel (hydroxypropylcellulose) (HPC).
Where [8] appears, read: dose: 100.0 mg/kg/injection, schedule: Q01DX005 (ip), vehicle: Klucel (hydroxypropylcellulose) (HPC).
Setting [9] is: dose: 200.0 mg/kg/injection, schedule: Q01DX005 (ip), vehicle: Klucel (hydroxypropylcellulose) (HPC).
The mark [10] stands for this setting: dose: 100.0 mg/kg/injection, schedule: Q04DX003 (ip), vehicle: saline with Tween-80.
Setting [11] is: dose: 200.0 mg/kg/injection, schedule: Q04DX003 (ip), vehicle: saline with Tween-80.
Where [12] appears, read: dose: 50.0 mg/kg/injection, schedule: Q01DX009 (ip), vehicle: saline with Tween-80.
Setting [13] is: dose: 100.0 mg/kg/injection, schedule: Q01DX009 (ip), vehicle: saline with Tween-80.
Setting [14] is: dose: 50.0 mg/kg/injection, schedule: Q01DX005 (ip), vehicle: saline with Tween-80.
Setting [15] is: dose: 100.0 mg/kg/injection, schedule: Q01DX005 (ip), vehicle: saline with Tween-80.

Where “and” joins values, the source holds several entries; their conditions need not be identical. Equal values may be shown once. Inconclusive results and toxic doses are left out. Square brackets hold non-standard residues; d marks the D form. Peptide text beside a SMILES is read from it. * marks the point of attachment. ξ: configuration not given here. Nle = CCCC[CH](N)C(=O)O; Cbz = O=C(OCc1ccccc1)*; ξT = CC(O)C(N)C(=O)O; OBn = c1ccc(CO*)cc1

On to `O=C(O)/C=N/NS(=O)(=O)c1ccccc1`, for which the T/C (dose: 12.5 mg/kg/injection, schedule: Q01DX009 (ip), vehicle: water) is 113 % of control; the T/C (dose: 50.0 mg/kg/injection, schedule: Q01DX009 (ip), vehicle: water) is 153 % of control; the T/C (dose: 75.0 mg/kg/injection, schedule: Q01DX009 (ip), vehicle: water) is 163 % of control; the T/C (dose: 100.0 mg/kg/injection, schedule: Q01DX009 (ip), vehicle: water) was 99 % of control.
`CC(=O)CC(=O)N(C)C`: the T/C runs as follows: under setting [1], 100 % of control; under setting [2], 98 % of control; under setting [3], 99 % of control; (dose: 400.0 mg/kg/injection, schedule: Q01DX009 (ip), vehicle: saline) 99 % of control.
As to `COc1ccc(NC(=O)CCC(=O)CC(=O)c2ccncc2)cc1`, the T/C is 101 % of control under setting [4], 103 % of control under setting [5] and 93 % of control under setting [6].
Consider `Cn1[nH]c(C(C)(C)O)cc1=O`, for which the T/C reads like this: (dose: 100.0 mg/kg/injection, schedule: Q01DX001 (ip), vehicle: saline) 107 % of control; (dose: 200.0 mg/kg/injection, schedule: Q01DX001 (ip), vehicle: saline) 97 % of control; (dose: 400.0 mg/kg/injection, schedule: Q01DX001 (ip), vehicle: saline) 101 % of control.
For the compound `CCCCC(NC(=O)OCc1ccccc1)C(=O)NC(C(=O)O)C(C)C` (stereo not drawn) (Cbz-[Nle]-Val-OH; configuration not given here), the T/C is 99 % of control under setting [7], 111 % of control under setting [8] and 104 % of control under setting [9].
Regarding `C=C1OC(=O)C(N)=C1C(C)=O`, the T/C was 99 % of control under setting [4], 97 % of control under setting [5] and 95 % of control under setting [6].
In the case of `CN1C(=O)c2ccc3c4ccc5c6c(ccc(c7ccc(c2c37)C1=O)c64)C(=O)OC5=O`, the T/C reads like this: under setting [7], 101 % of control; under setting [8], 101 % of control; under setting [9], 103 % of control.
Take `O=C(O)c1ccccc1N=N/C(=N\Nc1ccccc1C(=O)O)c1cccc2cccnc12`: the T/C by setting is: under setting [10], 103 % of control; under setting [11], 106 % of control; (dose: 400.0 mg/kg/injection, schedule: Q04DX003 (ip), vehicle: saline with Tween-80) 97 % of control.
Regarding `CCCCNCCC(SS)c1ccc(Cl)cc1` (stereo not drawn), the T/C by setting is: (dose: 25.0 mg/kg/injection, schedule: Q01DX009 (ip), vehicle: saline with Tween-80) 110 % of control; under setting [12], 100 % of control; under setting [13], 100 % of control.
For the compound `O=C(Nc1ccc(C2=NCCN2)cc1)c1ccc(NC(=O)c2ccc(C3=NCCN3)cc2)cc1`, the T/C is, setting by setting: (dose: 18.0 mg/kg/injection, schedule: Q01DX010 (ip), vehicle: saline) 154 % of control; (dose: 27.0 mg/kg/injection, schedule: Q01DX010 (ip), vehicle: saline) 172 % of control.
As to `CC(=O)NNC(=O)NCCCCCCNC(=O)NNC(C)=O`, the T/C is 101 % of control under setting [7]; 97 % of control under setting [8]; 92 % of control under setting [9]; 94 % of control (dose: 400.0 mg/kg/injection, schedule: Q01DX005 (ip), vehicle: Klucel (hydroxypropylcellulose) (HPC)).
For `C1CC(CCC2CCNCC2)CCN1`, the T/C runs as follows: (dose: 25.0 mg/kg/injection, schedule: Q01DX009 (ip), vehicle: saline) 96 % of control; under setting [1], 97 % of control.
In the case of `O=C1c2ccccc2-c2nc3ccccc3nc21`, the T/C by setting is: under setting [14], 94 % of control; under setting [15], 94 % of control.
Regarding `Cc1ccc(S(=O)(=O)Nc2ccccc2N(CCN(CCN(c2ccccc2NS(=O)(=O)c2ccc(C)cc2)S(=O)(=O)c2ccc(C)cc2)S(=O)(=O)c2ccc(C)cc2)S(=O)(=O)c2ccc(C)cc2)cc1`, the T/C by setting is: under setting [12], 90 % of control; under setting [13], 100 % of control; (dose: 200.0 mg/kg/injection, schedule: Q01DX009 (ip), vehicle: saline with Tween-80) 90 % of control.
Regarding `COC(=O)CC(c1ccc(OC)cc1)c1cc2c(cc1OC)OCO2` (stereo not drawn), the T/C reads like this: (dose: 50.0 mg/kg/injection, schedule: Q01DX005 (ip), vehicle: distilled water + Tween-80) 97 % of control; (dose: 100.0 mg/kg/injection, schedule: Q01DX005 (ip), vehicle: distilled water + Tween-80) 97 % of control; (dose: 200.0 mg/kg/injection, schedule: Q01DX005 (ip), vehicle: distilled water + Tween-80) 97 % of control.
`CCCC12C=C(OC)C(=O)C=C1OC(c1cc(OC)c(OC)c(OC)c1)C2C` (stereo not drawn): the T/C was 101 % of control (dose: 8.75 mg/kg/injection, schedule: Q01DX005 (ip), vehicle: Klucel (hydroxypropylcellulose) (HPC)); 96 % of control (dose: 17.5 mg/kg/injection, schedule: Q01DX005 (ip), vehicle: Klucel (hydroxypropylcellulose) (HPC)); 100 % of control (dose: 35.0 mg/kg/injection, schedule: Q01DX005 (ip), vehicle: Klucel (hydroxypropylcellulose) (HPC)).
As to `CCCCNCCC(O)c1cc2ccc(C(F)(F)F)cc2c2cc(C(F)(F)F)ccc12` (stereo not drawn), the T/C under setting [12] is 86 % of control and the T/C under setting [13] is 91 % of control.
For the compound `CC1=CC(=C2C(=O)c3ccccc3C2=O)C=C(C)N1CCNCCO`, the T/C (dose: 60.0 mg/kg/injection, schedule: Q01DX005 (ip), vehicle: Klucel (hydroxypropylcellulose) (HPC)) is 99 % of control; the T/C (dose: 120.0 mg/kg/injection, schedule: Q01DX005 (ip), vehicle: Klucel (hydroxypropylcellulose) (HPC)) was 90 % of control; the T/C (dose: 240.0 mg/kg/injection, schedule: Q01DX005 (ip), vehicle: Klucel (hydroxypropylcellulose) (HPC)) was 93 % of control.
Regarding `N#CC(Cc1ccc(CC(C#N)(c2ccccc2)c2ccccn2)cc1)(c1ccccc1)c1ccccn1` (stereo not drawn), the T/C is 100 % of control under setting [4], 91 % of control under setting [5] and 86 % of control under setting [6].
Regarding `N#CC1(N)CC2CCCCC2CC1c1ccccc1` (stereo not drawn), the T/C is 106 % of control (dose: 100.0 mg/kg/injection, schedule: Q04DX002 (ip), vehicle: saline with Tween-80); 101 % of control (dose: 200.0 mg/kg/injection, schedule: Q04DX002 (ip), vehicle: saline with Tween-80); 101 % of control (dose: 400.0 mg/kg/injection, schedule: Q04DX002 (ip), vehicle: saline with Tween-80).
Take `CC(O)C(NC(=O)OCc1ccccc1)C(=O)NCC(=O)NCC(=O)OCc1ccccc1` (stereo not drawn) (Cbz-[ξT]-Gly-Gly-OBn): the T/C is, setting by setting: under setting [14], 106 % of control; under setting [15], 100 % of control; (dose: 200.0 mg/kg/injection, schedule: Q01DX005 (ip), vehicle: saline with Tween-80) 106 % of control.
Turning to `C/C(=N\Nc1nc2ccccc2s1)c1ccccn1`, the T/C was 98 % of control (dose: 12.5 mg/kg/injection, schedule: Q01DX005 (ip), vehicle: saline with Tween-80); 93 % of control (dose: 25.0 mg/kg/injection, schedule: Q01DX005 (ip), vehicle: saline with Tween-80); 101 % of control and 91 % of control under setting [14]; 104 % of control under setting [15].
Turning to `CN(C)NC(=O)/C=C\C(=O)O`, the T/C (dose: 66.0 mg/kg/injection, schedule: Q01DX009 (ip), vehicle: saline) was 105 % of control; the T/C under setting [2] was 100 % of control; the T/C (dose: 150.0 mg/kg/injection, schedule: Q01DX009 (ip), vehicle: saline) was 100 % of control; the T/C under setting [3] is 91 % of control.
As for `O=C(N/N=C\c1ccc(O)cc1)C(=O)N/N=C\c1ccc(O)cc1`, the T/C was 87 % of control under setting [1], 92 % of control under setting [2] and 96 % of control under setting [3].
In the case of `COc1cccc2c(Nc3ccc4c(c3)OCO4)c(C(=O)O)cnc12`, the T/C reads like this: (dose: 60.0 mg/kg/injection, schedule: Q01DX005 (ip), vehicle: Klucel + Tween-80) 94 % of control; (dose: 120.0 mg/kg/injection, schedule: Q01DX005 (ip), vehicle: Klucel + Tween-80) 103 % of control.
On to `ClC1=C(Cl)C2(Cl)C3C(c4cc(Br)c(Br)cc4C4C3C3(Cl)C(Cl)=C(Cl)C4(Cl)C3(Cl)Cl)C1(Cl)C2(Cl)Cl` (stereo not drawn), for which the T/C is 101 % of control under setting [1], 106 % of control under setting [2] and 102 % of control under setting [3].
Take `CC(C)(C)SC(=O)C1CC1`: the T/C runs as follows: under setting [10], 111 % of control; under setting [11], 102 % of control.
Consider `OC(c1ccccc1)C1CCNCC1` (stereo not drawn) (tested in a mixture with another compound), for which the T/C reads like this: under setting [4], 105 % of control; under setting [5], 96 % of control; under setting [6], 99 % of control.
